Like-named read-outs stand apart in the source and are kept apart here.
Legend:
depression mice model = assay: In vivo corticosterone induced depression model: sucrose preference test; parameters: species or system mouse (male C57); conditions: for % Sucrose consumption (ml) ± SD: 2% sucrose, 21 days
Procedure: In vivo efficacy (ameliorates behavioral despair) of A1 in corticosterone induced model of stress (J. Neurochem., 2018 146, 722 734). […] A1 (20 mg/kg, oral) dissolved in normal saline was given for 3 consecutive weeks following corticosteroid stress. The sucrose preference test was employed, tail suspension test, and forced swim test to evaluate behavioral distress. We noticed that A1 can resurrect mice in stressful situations. […]
Sucrose consumption was employed to evaluate anhedonia, a core hallmark of depression in mice. The animals were allowed unfettered access to both identical bottles, one containing water while the other contained a 2% solution of sucrose, for 21 days.
The below equation was later employed to determine water and sugar consumed by mice:
Sucrose Preference=Sucrose consumed[…]/Total fluid intake.

p-AKT 473 = assay: Survival pathway protein expression by western blotting in SHSY5Y; format: cell-based, human
Procedure: (§1) Here, A1 was tested to find its role in eliciting survival pathway proteins in differentiated human neuroblastoma cells in concentration and time dependent manner.
To investigate the effect of A1 on the survival proteins, […] of survival proteins, including p-Erk 44/42, p-AKT 473, Anti BDNF, and p TrkB 816 and p TrKB 515 by western blotting.

TrkB stable cells SHSY5Y = assay: Cytoprotective effect in TrkB stable cells SHSY5Y, 96 hrs; format: cell-based, human; conditions: 96 hrs; for viability at 20 µM: Homo sapiens, SH-SY5Y, 96 h, read-out: % Cell viability ± SD
Procedure: In another experiment, the cytoprotective effect of A1 as well as parent molecule B1 was determined in TrkB stable cells SHSY5Y.

p TrkB 816 = assay: Survival pathway protein expression by western blotting in SHSY5Y; format: cell-based, human
Procedure: as §1
(§2) To investigate the effect of A1 on the survival proteins, SHSY5Y cell cultures were treated with different concentrations for 6 hrs and analyzed for the expression of survival proteins, including p-Erk 44/42, p-AKT 473, Anti BDNF, and p TrkB 816 and p TrKB 515 by western blotting.

p-Erk 44/42 = assay: as above; format: cell-based, human; conditions: for Relative Protein Expression p ERK 44/42: 6 hrs
Procedure: as §1, §2

Anti BDNF [1] = assay: as above; format: cell-based, human
Procedure: as §1, §2

p TrkB 515 = assay: as above; format: cell-based, human
Procedure: as §1, §2

Anti BDNF [2] = assay: as above; format: cell-based, human; conditions: for Relative Protein Expression Anti BDNF: A1 + Cort.
[3] = tested on: differentiated human neuroblastoma cell line SHSY5Y; assay: In vitro neuroprotection against corticosterone, differentiated SHSY5Y, 48 hrs; format: cell-based
Procedure: Human neuroblastoma cells (SHSY5Y) and mouse neuroblastoma cells (N2A) were procured from American Type Culture Collection (ATCC). SHSY5Y cell cultures were maintained in DMEM F12 (Invitrogen) whereas N2A were cultured in DMEM (Invitrogen) with 10% Fetal Bovine Serum (Gibco) medium, subjected to differentiation to acquire neuronal morphology (employing differentiation media DMEM-F12, 3-5% FBS, (For differentiation, low concentration of FBS was used) and 50 μM retinoic acid). Differentiated cells were later seeded into 96 well plates, at a density of 1×10^4 before being incubated for 48 hrs with the synthesized library. The exhausted culture media was substituted with new culture media containing 0.5 mg/ml MTT dye. Eventually, the OD at 490 nm excitation was measured using a 96-well plate reader. The proportion of viable cells was determined as percentage of absorbance of untreated cultures relative to control.
In the next attempt, the neuroprotective properties of the generated library (20 μM, 48 hrs) were assessed employing differentiated human neuroblastoma cell line SHSY5Y and mouse neuroblastoma cell line N2A (Biomol Ther., 2022, 30(6), 570-575). The cells were assaulted with the neurotoxic corticosterone (Cort, 400 μM) for 24 hrs after the overnight preincubation of cells with test molecules as a selection criterion. […]

[4] = tested on: nitric oxide (NO) production in RAW264.7 macrophages; assay: In vitro anti-inflammatory activity: nitric oxide production (Griess) in LPS-exposed RAW264.7 macrophages; format: cell-based, mouse; conditions: Mus musculus, RAW264.7, LPS 24 hrs, read-out: % NO Inhibition ± SD
Procedure: Measurement of Nitric oxide: RAW264.7 macrophages were seeded in 96-well plates with a density of 0.5×10^5 cells/well and incubated overnight at 37° C. in a 5% CO2 atmosphere. The cells were treated with different concentration of CBD and its analogues and exposed to LPS for 24 hrs. For nitric oxide (NO) determination, the cell culture supernatant was taken and mixed with equal volume of Griess reagent in another 96 well plate at room temperature (Biomed Pharmacother., 2017, 92, 175-186). The absorbance was measured at 540 nm. The final calculations were determined on a NaNO2 standard curve.

[5] = A1 for multiple time spans, corticosterone
[6] = different concentrations of A1, 6 hrs

SMILES: C=C(C)[C@@H]1CCC(C)=C[C@H]1c1c(O)cc(CCCCC)c(CN2CCOCC2)c1O [A1, 2′-(morpholin-1-ylmethyl)-cannabidiol]
- increase of sucrose consumption (depression mice model; compared with stressed mice): more than 50%
- % Sucrose consumption (ml) ± SD (depression mice model; with Cort.): 78.02±0.99%
- % Sucrose consumption (ml) ± SD (depression mice model; without Cort.): 83.80±0.80%
- Relative Protein Expression PAKT 473 (p-AKT 473; A1 5 μM, 6 hrs): 0.67
- Relative Protein Expression PAKT 473 (p-AKT 473; A1 10 μM, 6 hrs): 1.60
- Relative Protein Expression PAKT 473 (p-AKT 473; A1 + Cort., 0 hr): 1.00
- Relative Protein Expression PAKT 473 (p-AKT 473; A1 + Cort., 0.5 hr): 11.68
- Relative Protein Expression PAKT 473 (p-AKT 473; A1 + Cort., 1 hr): 14.78
- Relative Protein Expression PAKT 473 (p-AKT 473; A1 + Cort., 2 hr): 17.15
- Relative Protein Expression PAKT 473 (p-AKT 473; A1 + Cort., 4 hr): 26.33
- Relative Protein Expression PAKT 473 (p-AKT 473; A1 + Cort., 6 hr): 31.80
- Relative Protein Expression PAKT 473 (p-AKT 473; A1/Cort., A1 5 μM, 6 hrs): 0.60
- Relative Protein Expression PAKT 473 (p-AKT 473; A1/Cort., A1 10 μM, 6 hrs): 1.35
- expression of p-AKT 473 (in words) (p-AKT 473; [5]): remarkably increased
- cell viability versus control (in words) (TrkB stable cells SHSY5Y): increased cell viability versus control
- viability at 20 µM (TrkB stable cells SHSY5Y; test compound 20 μM + Cort. 400 μM): 97.2 ± 1.13%
- viability at 20 µM (TrkB stable cells SHSY5Y; test compound alone, 20 μM): 110 ± 1.61%
- Relative Protein Expression p TrkB 816 (p TrkB 816; A1 5 μM, 6 hrs): 3.11
- Relative Protein Expression p TrkB 816 (p TrkB 816; A1 10 μM, 6 hrs): 2.91
- Relative Protein Expression p TrkB 816 (p TrkB 816; A1 + Cort., 6 hr): 23.0422
- Relative Protein Expression p TrkB 816 (p TrkB 816; A1/Cort., A1 5 μM, 6 hrs): 1.41
- Relative Protein Expression p TrkB 816 (p TrkB 816; A1/Cort., A1 10 μM, 6 hrs): 2.89
- expression of p TrkB 816 (in words) (p TrkB 816; [6]): increased significantly
- Relative Protein Expression p ERK 44/42 (p-Erk 44/42; A1 5 μM): 4.51
- Relative Protein Expression p ERK 44/42 (p-Erk 44/42; A1 10 μM): 8.80
- Relative Protein Expression p ERK 44/42 (p-Erk 44/42; A1/Cort., A1 5 μM): 3.70
- Relative Protein Expression p ERK 44/42 (p-Erk 44/42; A1/Cort., A1 10 μM): 5.05
- expression of p-Erk 44/42 (in words) (p-Erk 44/42; [6]): increased significantly
- Relative Protein Expression Anti BDNF (Anti BDNF [1]; A1 5 μM, 6 hrs): 0.67
- Relative Protein Expression Anti BDNF (Anti BDNF [1]; A1 10 μM, 6 hrs): 1.48
- Relative Protein Expression Anti BDNF (Anti BDNF [1]; A1 + Cort., 6 hr): 39.43
- Relative Protein Expression Anti BDNF (Anti BDNF [1]; A1/Cort., A1 5 μM, 6 hrs): 0.44
- Relative Protein Expression Anti BDNF (Anti BDNF [1]; A1/Cort., A1 10 μM, 6 hrs): 1.34
- expression of Anti BDNF (in words) (Anti BDNF [1]; [6]): increased significantly
- Relative Protein Expression p TrkB 515 (p TrkB 515; A1 10 μM, 6 hrs): 1.75
- Relative Protein Expression p TrkB 515 (p TrkB 515; A1 + Cort., 6 hr): 6.675
- Relative Protein Expression p TrkB 515 (p TrkB 515; A1/Cort., A1 5 μM, 6 hrs): 0.07
- Relative Protein Expression p TrkB 515 (p TrkB 515; A1/Cort., A1 10 μM, 6 hrs): 1.30
- expression of p TrkB 515 (in words) (p TrkB 515; [6]): increased significantly except for the expression of p-AKT 473 and p TrkB 515
- Relative Protein Expression Anti BDNF (Anti BDNF [2]; 0 hr): 1.029
- Relative Protein Expression Anti BDNF (Anti BDNF [2]; 0.5 hr): 14.02
- Relative Protein Expression Anti BDNF (Anti BDNF [2]; 1 hr): 28.11
- Relative Protein Expression Anti BDNF (Anti BDNF [2]; 2 hr): 51.76
- Relative Protein Expression Anti BDNF (Anti BDNF [2]; 4 hr): 41.62
- expression of Anti BDNF (in words) (Anti BDNF [2]; [5]): remarkably increased
- cell viability (in words) ([3]; 20 μM + Cort. 400 μM, compared with corticosterone treated group, SHSY5Y and N2A): the highest number of viable cells were observed in A1 treated line
- viability at 20 µM ([3]; Homo sapiens, SH-SY5Y, test compound 20 μM + Cort. 400 μM, 48 hrs, read-out: % Cell viability ± SD, SHSY5Y): 97.9 ± 1.31%
- inhibition at 5 µM ([4]; 5 μM): 7.1 ± 0.8%
- inhibition at 10 µM ([4]; 10 μM): 12.3%

Reference: patent US20260315499A1, “2'- {HETEROCYCLYL (ARYL/ALKYL) METHYL} - CANNABIDIOL COMPOUNDS AND PROCESS FOR PREPARATION THEREOF” (COUNCIL OF SCIENTIFIC & INDUSTRIAL RESEARCH, priority 2023, published 2026)
